Assays:
[1] = target: T1, Alpha-2A adrenergic receptor (Homo sapiens, UniProt P08913); type: cell membranes, Sf9, Membrane; settings: sf9; further: in other assays of this panel Not Active means under 50% inhibition at 10 µM
T1 sequence (P08913 whole entry): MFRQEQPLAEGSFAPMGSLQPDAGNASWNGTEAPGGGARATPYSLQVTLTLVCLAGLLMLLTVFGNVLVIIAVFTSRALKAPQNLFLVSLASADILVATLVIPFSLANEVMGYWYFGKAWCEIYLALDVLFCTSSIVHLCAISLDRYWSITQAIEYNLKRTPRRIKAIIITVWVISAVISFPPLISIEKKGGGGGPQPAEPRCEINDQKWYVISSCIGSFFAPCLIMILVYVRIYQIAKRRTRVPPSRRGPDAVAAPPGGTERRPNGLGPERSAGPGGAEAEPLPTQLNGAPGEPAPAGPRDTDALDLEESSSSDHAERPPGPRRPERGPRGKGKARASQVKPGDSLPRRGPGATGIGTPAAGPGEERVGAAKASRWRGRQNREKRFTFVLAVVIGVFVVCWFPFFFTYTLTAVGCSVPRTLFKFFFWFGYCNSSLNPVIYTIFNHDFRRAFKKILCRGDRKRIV

[2] = target: T2, 5-hydroxytryptamine receptor 2C (Homo sapiens, UniProt P28335); experiment: DRUGMATRIX: Serotonin (5-Hydroxytryptamine) 5-HT2C radioligand binding (ligand: [3H] Mesulergine); type: cell membranes, CHO-K1, Membrane; settings: cho-k1; Not Active = under 50% inhibition at 10 µM
T2 sequence (P28335 whole entry): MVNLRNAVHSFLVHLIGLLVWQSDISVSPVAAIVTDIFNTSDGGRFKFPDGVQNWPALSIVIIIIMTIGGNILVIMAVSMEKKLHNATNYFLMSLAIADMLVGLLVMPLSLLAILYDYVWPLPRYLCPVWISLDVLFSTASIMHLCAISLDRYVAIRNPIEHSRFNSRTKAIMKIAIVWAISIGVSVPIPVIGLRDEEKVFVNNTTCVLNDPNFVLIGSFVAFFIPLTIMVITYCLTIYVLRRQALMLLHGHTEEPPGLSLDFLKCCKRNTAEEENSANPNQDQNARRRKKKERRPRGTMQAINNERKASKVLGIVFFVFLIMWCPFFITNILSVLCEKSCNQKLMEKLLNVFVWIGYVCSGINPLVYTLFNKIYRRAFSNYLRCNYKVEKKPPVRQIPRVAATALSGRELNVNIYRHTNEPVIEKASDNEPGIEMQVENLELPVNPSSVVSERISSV

[3] = target: D(1A) dopamine receptor (Homo sapiens, UniProt P21728); experiment: DRUGMATRIX: Dopamine D1 radioligand binding (ligand: [3H] SCH-23390); type: cell membranes, CHO, Membrane; settings: cho; Not Active = under 50% inhibition at 10 µM
[4] = DRUGMATRIX: GABAA, Flunitrazepam, Central radioligand binding (ligand: [3H] Flunitrazepam); type: cell membranes, Rattus norvegicus, Wistar, Brain, Membrane; settings: Not Active = under 50% inhibition at 10 µM
[5] = target: Cytochrome P450 2C9 (Homo sapiens, UniProt P11712); settings: bti-tn-5b1-4; further: in other assays of this panel Not Active means under 50% inhibition at 10 µM
[6] = target: Cytochrome P450 3A4 (Homo sapiens, UniProt P08684); settings: bti-tn-5b1-4; further: in other assays of this panel Not Active means under 50% inhibition at 10 µM
[7] = target: T3, Estrogen receptor (Homo sapiens, UniProt P03372); settings: sf9; further: in other assays of this panel Not Active means under 50% inhibition at 10 µM
T3 sequence (P03372 whole entry): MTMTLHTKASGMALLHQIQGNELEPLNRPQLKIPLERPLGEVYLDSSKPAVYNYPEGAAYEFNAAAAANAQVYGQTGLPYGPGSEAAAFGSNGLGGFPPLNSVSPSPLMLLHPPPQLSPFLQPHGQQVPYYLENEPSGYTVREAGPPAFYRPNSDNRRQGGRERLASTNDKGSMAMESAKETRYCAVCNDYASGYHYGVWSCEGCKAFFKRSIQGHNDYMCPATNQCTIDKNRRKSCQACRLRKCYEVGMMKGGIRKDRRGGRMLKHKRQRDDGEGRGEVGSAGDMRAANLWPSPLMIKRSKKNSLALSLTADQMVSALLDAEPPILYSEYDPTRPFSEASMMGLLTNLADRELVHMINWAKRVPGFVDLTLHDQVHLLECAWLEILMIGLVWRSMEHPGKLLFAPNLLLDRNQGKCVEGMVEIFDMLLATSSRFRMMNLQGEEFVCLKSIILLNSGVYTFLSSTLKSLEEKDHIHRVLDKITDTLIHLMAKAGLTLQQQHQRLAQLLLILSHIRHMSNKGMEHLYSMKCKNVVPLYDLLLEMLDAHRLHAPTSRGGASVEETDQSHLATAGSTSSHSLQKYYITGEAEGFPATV

Sequence of Cytochrome P450 3A4 (P08684 whole entry): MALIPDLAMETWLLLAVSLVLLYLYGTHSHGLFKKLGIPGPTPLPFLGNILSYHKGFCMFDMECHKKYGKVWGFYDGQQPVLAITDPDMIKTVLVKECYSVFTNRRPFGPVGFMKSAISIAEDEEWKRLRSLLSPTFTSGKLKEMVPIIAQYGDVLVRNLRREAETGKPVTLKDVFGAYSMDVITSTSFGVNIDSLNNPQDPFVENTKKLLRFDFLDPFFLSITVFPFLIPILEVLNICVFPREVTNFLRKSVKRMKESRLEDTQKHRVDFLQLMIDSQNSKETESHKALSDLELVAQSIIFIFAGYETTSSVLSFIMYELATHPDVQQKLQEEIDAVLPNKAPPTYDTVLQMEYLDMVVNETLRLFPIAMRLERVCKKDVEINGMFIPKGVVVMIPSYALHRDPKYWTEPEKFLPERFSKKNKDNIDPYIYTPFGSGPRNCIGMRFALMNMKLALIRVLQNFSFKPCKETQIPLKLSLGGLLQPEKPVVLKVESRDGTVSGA
Sequence of Cytochrome P450 2C9 (P11712 whole entry): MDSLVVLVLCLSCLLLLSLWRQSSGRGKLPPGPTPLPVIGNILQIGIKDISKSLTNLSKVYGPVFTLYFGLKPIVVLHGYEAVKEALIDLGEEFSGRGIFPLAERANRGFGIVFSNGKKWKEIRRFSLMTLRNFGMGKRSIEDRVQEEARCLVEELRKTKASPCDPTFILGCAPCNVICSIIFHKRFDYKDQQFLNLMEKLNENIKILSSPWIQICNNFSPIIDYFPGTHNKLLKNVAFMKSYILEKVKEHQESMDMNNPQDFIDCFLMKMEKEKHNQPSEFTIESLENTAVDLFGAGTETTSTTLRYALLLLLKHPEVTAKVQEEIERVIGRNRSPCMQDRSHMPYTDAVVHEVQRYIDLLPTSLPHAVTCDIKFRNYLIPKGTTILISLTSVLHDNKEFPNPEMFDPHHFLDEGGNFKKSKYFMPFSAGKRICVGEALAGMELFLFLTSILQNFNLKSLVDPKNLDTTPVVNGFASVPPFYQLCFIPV
Sequence of D(1A) dopamine receptor (P21728 whole entry): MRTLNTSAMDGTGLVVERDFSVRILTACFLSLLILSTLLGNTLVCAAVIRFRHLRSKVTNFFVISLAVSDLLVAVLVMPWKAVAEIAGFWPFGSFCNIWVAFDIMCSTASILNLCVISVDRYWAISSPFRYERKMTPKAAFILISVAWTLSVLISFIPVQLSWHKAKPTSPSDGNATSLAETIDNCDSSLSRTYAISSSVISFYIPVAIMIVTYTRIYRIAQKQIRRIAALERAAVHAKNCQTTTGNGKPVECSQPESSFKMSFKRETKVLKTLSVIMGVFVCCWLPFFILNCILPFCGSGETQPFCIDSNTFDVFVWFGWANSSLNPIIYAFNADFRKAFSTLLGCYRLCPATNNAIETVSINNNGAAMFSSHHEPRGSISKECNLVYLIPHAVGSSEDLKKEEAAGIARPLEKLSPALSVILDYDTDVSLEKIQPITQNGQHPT

CC1(C)[C@H](C(=O)O)N2C(=O)C[C@H]2S1(=O)=O [SULBACTAM]
Not Active: IC50 [1] | IC50 [2] | IC50 [3] | IC50 [4] | Ki [4] | IC50 [5] | Ki [5] | IC50 [6] | Ki [6] | IC50 [7]

CC(N)C12CC3CC(CC(C3)C1)C2 (stereo not given) [RIMANTADINE]
Not Active: IC50 [1] | IC50 [2] | IC50 [3] | IC50 [4] | Ki [4] | IC50 [5] | Ki [5] | IC50 [6] | Ki [6] | IC50 [7]

Source: ChEMBL document CHEMBL1909046, “DrugMatrix in vitro pharmacology data”
